# Laboratory results from patent US20090274764A1, “Hollow Foam Beads for Treatment of Glioblastoma” (priority 2008, published 2009).
# Where two headings read alike, the source gives them in different places.
# How the values were obtained:
# [1] = system: rodent 9L glioma; assay: Inhibition of tumor proliferation, 9L cells counted after 5 days; type: cell-based; conditions: 120 h, read-out: growth inhibition
# Protocol: The 9L gliosarcoma cell line was obtained from Dr. M. Barker at the University of California at San Francisco Brain Tumor Research Center (San Francisco, Calif., USA). The cells were maintained in tissue culture in Dulbecco's minimum essential medium with 10% fetal bovine serum, streptomycin (80.5 units/ml), penicillin (base; 80.5 units/ml), and 1% L-glutamine (all products from GIBCO laboratories, Grand Island, N.Y., USA). Cells were maintained in a humidified atmosphere of 5% CO2 at 37° C. The cells were grown to confluence, detached with 0.25% trypsin in Dulbecco's phosphate-buffered saline, and resuspended in medium.
# Inhibition of tumor proliferation was tested against the rodent 9L glioma. […] The data were analyzed using the two-tailed Student's t-test.
# [2] = system: 9L gliosarcoma
# Source text: 88 rats were intracranially implanted on Day 0 with 9L gliosarcoma.
smiles,measurement,setting,value
"CO[C@H]1C[C@@H]2CC[C@@H](C)[C@@](O)(O2)C(=O)C(=O)N2CCCC[C@H]2C(=O)O[C@H]([C@H](C)C[C@@H]2CC[C@@H](O)[C@H](OC)C2)CC(=O)[C@H](C)/C=C(\C)[C@@H](O)[C@@H](OC)C(=O)[C@H](C)C[C@H](C)/C=C/C=C/C=C/1C [Rapamycin, rapamycin]",inhibition at 0.01 µg/mL,[1]; 0.01 microgram/ml,34%
same,inhibition at 10 µg/mL,[1]; 10 microgram/ml,62%
same,toxicity,"[2]; rat, in vivo, ip, 2 mg/kg",none of the rats that received systemic injections of rapamycin showed overt signs of toxicity
same,% Survival,"[2]; treated Day 0, at Day 0",100%
same,% Survival,"[2]; treated Day 0, at Day 12, 1st line",100%
same,% Survival,"[2]; treated Day 0, at Day 12, 2nd line",100%
same,% Survival,"[2]; treated Day 0, at Day 13, 1st line",100%
same,% Survival,"[2]; treated Day 0, at Day 13, 2nd line",100%
same,% Survival,"[2]; treated Day 0, at Day 14, 1st line",100%
same,% Survival,"[2]; treated Day 0, at Day 14, 2nd line",100%
same,% Survival,"[2]; treated Day 0, at Day 15, 1st line",100%
same,% Survival,"[2]; treated Day 0, at Day 15, 2nd line",100%
same,% Survival,"[2]; treated Day 0, at Day 16, 1st line",100%
same,% Survival,"[2]; treated Day 0, at Day 16, 2nd line",100%
same,% Survival,"[2]; treated Day 0, at Day 17, 1st line",100%
same,% Survival,"[2]; treated Day 0, at Day 17, 2nd line",100%
same,% Survival,"[2]; treated Day 0, at Day 18, 1st line",100%
same,% Survival,"[2]; treated Day 0, at Day 18, 2nd line",100%
same,% Survival,"[2]; treated Day 0, at Day 19, 1st line",100%
same,% Survival,"[2]; treated Day 0, at Day 19, 2nd line",100%
same,% Survival,"[2]; treated Day 0, at Day 20, 1st line",100%
same,% Survival,"[2]; treated Day 0, at Day 20, 2nd line",100%
same,% Survival,"[2]; treated Day 0, at Day 21, 1st line",100%
same,% Survival,"[2]; treated Day 0, at Day 21, 2nd line",100%
same,% Survival,"[2]; treated Day 0, at Day 22, 1st line",100%
same,% Survival,"[2]; treated Day 0, at Day 22, 2nd line",100%
same,% Survival,"[2]; treated Day 0, at Day 23, 1st line",100%
same,% Survival,"[2]; treated Day 0, at Day 23, 2nd line",100%
same,% Survival,"[2]; treated Day 0, at Day 24, 1st line",100%
same,% Survival,"[2]; treated Day 0, at Day 24, 2nd line",100%
same,% Survival,"[2]; treated Day 0, at Day 25, 1st line",100%
same,% Survival,"[2]; treated Day 0, at Day 25, 2nd line",75%
same,% Survival,"[2]; treated Day 0, at Day 26, 1st line",75%
same,% Survival,"[2]; treated Day 0, at Day 26, 2nd line",75%
same,% Survival,"[2]; treated Day 0, at Day 27, 1st line",75%
same,% Survival,"[2]; treated Day 0, at Day 27, 2nd line",75%
same,% Survival,"[2]; treated Day 0, at Day 28, 1st line",75%
same,% Survival,"[2]; treated Day 0, at Day 28, 2nd line",50%
same,% Survival,"[2]; treated Day 0, at Day 29, 1st line",50%
same,% Survival,"[2]; treated Day 0, at Day 29, 2nd line",50%
same,% Survival,"[2]; treated Day 0, at Day 30, 1st line",50%
same,% Survival,"[2]; treated Day 0, at Day 30, 2nd line",37.5%
same,% Survival,"[2]; treated Day 0, at Day 31, 1st line",37.5%
same,% Survival,"[2]; treated Day 0, at Day 31, 2nd line",37.5%
same,% Survival,"[2]; treated Day 0, at Day 32, 1st line",37.5%
same,% Survival,"[2]; treated Day 0, at Day 32, 2nd line",37.5%
same,% Survival,"[2]; treated Day 0, at Day 33, 1st line",37.5%
same,% Survival,"[2]; treated Day 0, at Day 33, 2nd line",37.5%
same,% Survival,"[2]; treated Day 0, at Day 35, 1st line",37.5%
same,% Survival,"[2]; treated Day 0, at Day 35, 2nd line",25%
same,% Survival,"[2]; treated Day 0, at Day 40, 1st line",25%
same,% Survival,"[2]; treated Day 0, at Day 41, 2nd line",0%
same,% Survival,"[2]; treated Day 5, at Day 0",100%
same,% Survival,"[2]; treated Day 5, at Day 12, 1st line",100%
same,% Survival,"[2]; treated Day 5, at Day 12, 2nd line",100%
same,% Survival,"[2]; treated Day 5, at Day 13, 1st line",100%
same,% Survival,"[2]; treated Day 5, at Day 13, 2nd line",100%
same,% Survival,"[2]; treated Day 5, at Day 14, 1st line",100%
same,% Survival,"[2]; treated Day 5, at Day 14, 2nd line",100%
same,% Survival,"[2]; treated Day 5, at Day 15, 1st line",100%
same,% Survival,"[2]; treated Day 5, at Day 15, 2nd line",100%
same,% Survival,"[2]; treated Day 5, at Day 16, 1st line",100%
same,% Survival,"[2]; treated Day 5, at Day 16, 2nd line",100%
same,% Survival,"[2]; treated Day 5, at Day 17, 1st line",100%
same,% Survival,"[2]; treated Day 5, at Day 17, 2nd line",100%
same,% Survival,"[2]; treated Day 5, at Day 18, 1st line",100%
same,% Survival,"[2]; treated Day 5, at Day 18, 2nd line",100%
same,% Survival,"[2]; treated Day 5, at Day 19, 1st line",100%
same,% Survival,"[2]; treated Day 5, at Day 19, 2nd line",100%
same,% Survival,"[2]; treated Day 5, at Day 20, 1st line",100%
same,% Survival,"[2]; treated Day 5, at Day 20, 2nd line",100%
same,% Survival,"[2]; treated Day 5, at Day 21, 1st line",100%
same,% Survival,"[2]; treated Day 5, at Day 21, 2nd line",100%
same,% Survival,"[2]; treated Day 5, at Day 22, 1st line",100%
same,% Survival,"[2]; treated Day 5, at Day 22, 2nd line",100%
same,% Survival,"[2]; treated Day 5, at Day 23, 1st line",100%
same,% Survival,"[2]; treated Day 5, at Day 23, 2nd line",100%
same,% Survival,"[2]; treated Day 5, at Day 24, 1st line",100%
same,% Survival,"[2]; treated Day 5, at Day 24, 2nd line",100%
same,% Survival,"[2]; treated Day 5, at Day 25, 1st line",100%
same,% Survival,"[2]; treated Day 5, at Day 26, 2nd line",75%
same,% Survival,"[2]; treated Day 5, at Day 27, 1st line",75%
same,% Survival,"[2]; treated Day 5, at Day 27, 2nd line",62.5%
same,% Survival,"[2]; treated Day 5, at Day 28, 1st line",62.5%
same,% Survival,"[2]; treated Day 5, at Day 28, 2nd line",50%
same,% Survival,"[2]; treated Day 5, at Day 29, 1st line",50%
same,% Survival,"[2]; treated Day 5, at Day 29, 2nd line",50%
same,% Survival,"[2]; treated Day 5, at Day 30, 1st line",50%
same,% Survival,"[2]; treated Day 5, at Day 30, 2nd line",50%
same,% Survival,"[2]; treated Day 5, at Day 31, 1st line",50%
same,% Survival,"[2]; treated Day 5, at Day 31, 2nd line",50%
same,% Survival,"[2]; treated Day 5, at Day 32, 1st line",50%
same,% Survival,"[2]; treated Day 5, at Day 32, 2nd line",37.5%
same,% Survival,"[2]; treated Day 5, at Day 33, 1st line",37.5%
same,% Survival,"[2]; treated Day 5, at Day 33, 2nd line",37.5%
same,% Survival,"[2]; treated Day 5, at Day 35, 1st line",37.5%
same,% Survival,"[2]; treated Day 5, at Day 35, 2nd line",37.5%
same,% Survival,"[2]; treated Day 5, at Day 40, 1st line",37.5%
same,% Survival,"[2]; treated Day 5, at Day 40, 2nd line",37.5%
same,% Survival,"[2]; treated Day 5, at Day 41, 1st line",37.5%
same,% Survival,"[2]; treated Day 5, at Day 41, 2nd line",0%
same,Statistical Significance (survival) vs Day 0-0.2%,[2]; treatment Day 0,0.4226
same,Statistical Significance (survival) vs Day 0-2.2%,[2]; treatment Day 0,0.2237
same,Statistical Significance (survival) vs Day 0-28%,[2]; treatment Day 0,0.7869
same,Statistical Significance (survival) vs Day 0-Placebo,[2]; treatment Day 0,0.0001
same,Statistical Significance (survival) vs Day 5-0.2%,[2]; treatment Day 0,0.0002
same,Statistical Significance (survival) vs Day 5-2.2%,[2]; treatment Day 0,0.0008
same,Statistical Significance (survival) vs Day 5-Placebo,[2]; treatment Day 0,0.0001
same,Statistical Significance (survival) vs Day 5-Systemic,[2]; treatment Day 0,0.5157
same,Statistical Significance (survival) vs Day 0-0.2%,[2]; treatment Day 5,0.2137
same,Statistical Significance (survival) vs Day 0-28%,[2]; treatment Day 5,0.9992
same,Statistical Significance (survival) vs Day 0-Placebo,[2]; treatment Day 5,0.0001
same,Statistical Significance (survival) vs Day 0-Systemic,[2]; treatment Day 5,0.5157
same,Statistical Significance (survival) vs Day 5-0.2%,[2]; treatment Day 5,0.0001
same,Statistical Significance (survival) vs Day 5-2.2%,[2]; treatment Day 5,0.003
same,Statistical Significance (survival) vs Day 5-28%,[2]; treatment Day 5,0.222
same,Statistical Significance (survival) vs Day 5-Placebo,[2]; treatment Day 5,0.0001
same,Mean Survival,[2]; treatment initiated 5 days after tumor implantation,29 days
same,Mean Survival,[2]; treatment initiated concurrently with tumor implantation (Day 0),28 days
